The source of these data is US20080227823A1, “AMIDE DERIVATIVES AS CALCIUM CHANNEL BLOCKERS” (priority 2007, published 2008).

Assay [1] addresses T1, human α1I T-type channels (Homo sapiens, UniProt Q9P0X4).
T1 construct: expressed in transfected cells; host or cells: HEK 293
Put plainly: T-type calcium channel block, whole cell patch clamp in HEK cells. Format: cell-based. The note with it: mainly non-inactivated protocol. The method, then:
(§1) T-type calcium channel blocking activity was assayed in human embryonic kidney cells, HEK 293, stably transfected with the T-type calcium channel subunits. Briefly, cells were cultured in Dulbecco's modified eagle medium (DMEM) supplemented with 10% fetal bovine serum, 200 U/ml penicillin and 0.2 mg/ml streptomycin at 37° C. with 5% CO2. At 85% confluency cells were split with 0.25% trypsin/1 mM EDTA and plated at 10% confluency on glass coverslips. At 12 hours the medium was replaced and the cells stably transfected using a standard calcium phosphate protocol and the appropriate calcium channel cDNA's. Fresh DMEM was supplied and the cells transferred to 28° C./5% CO2. Cells were incubated for 1 to 2 days prior to whole cell recording.
(§2) Standard patch-clamp techniques were employed to identify blockers of T-type currents. Briefly, previously described HEK cell lines stably expressing human α1G, α1H and α1I T-type channels were used for all the recordings (passage #: 4-20, 37° C., 5% CO2). Whole cell patch clamp experiments were performed using an Axopatch 200B amplifier (Axon Instruments, Burlingame, Calif.) linked to a personal computer equipped with pCLAMP software. Data were analyzed using Clampfit (Axon Instruments) and SigmaPlot 4.0 (Jandel Scientific). To obtain T-type currents, plastic dishes containing semi-confluent cells were positioned on the stage of a ZEISS AXIOVERT S100 microscope after replacing the culture medium with external solution (see below). Whole-cell patches were obtained using pipettes (borosilicate glass with filament, O.D.: 1.5 mm, I.D.: 0.86 mm, 10 cm length), fabricated on a SUTTER P-97 puller with resistance values of ˜5 MΩ (see below for internal solution).
(§3) T-type currents were reliably obtained by using two voltage protocols: • (1) “non-inactivating”, and • (2) “inactivation”
(§4) In the non-inactivating protocol, the holding potential is set at −110 mV and with a pre-pulse at −100 mV for 1 second prior to the test pulse at −40 mV for 50 ms. In the inactivation protocol, the pre-pulse is at approximately −85 mV for 1 second, which inactivates about 15% of the T-type channels.
(§5) Test compounds were dissolved in external solution, 0.1-0.01% DMSO. After 10 min rest, they were applied by gravity close to the cell using a WPI microfil tubing. The “non-inactivated” pre-pulse was used to examine the resting block of a compound. The “inactivated” protocol was employed to study voltage-dependent block. However, the initial data shown below were mainly obtained using the non-inactivated protocol only. Kd values are shown for various compounds of the invention in Table 4 measured at 1 μM for the drug of interest except for compound 18 which was measured at 200 nM.
On the technique in general: The patch-clamp technique gives a direct electrical read-out from membranes.

The target in assay [2] is T2, human α1G T-type channels (Homo sapiens, UniProt O43497).
T2 construct: expressed in transfected cells; host or cells: HEK 293
T2 sequence (O43497 whole entry): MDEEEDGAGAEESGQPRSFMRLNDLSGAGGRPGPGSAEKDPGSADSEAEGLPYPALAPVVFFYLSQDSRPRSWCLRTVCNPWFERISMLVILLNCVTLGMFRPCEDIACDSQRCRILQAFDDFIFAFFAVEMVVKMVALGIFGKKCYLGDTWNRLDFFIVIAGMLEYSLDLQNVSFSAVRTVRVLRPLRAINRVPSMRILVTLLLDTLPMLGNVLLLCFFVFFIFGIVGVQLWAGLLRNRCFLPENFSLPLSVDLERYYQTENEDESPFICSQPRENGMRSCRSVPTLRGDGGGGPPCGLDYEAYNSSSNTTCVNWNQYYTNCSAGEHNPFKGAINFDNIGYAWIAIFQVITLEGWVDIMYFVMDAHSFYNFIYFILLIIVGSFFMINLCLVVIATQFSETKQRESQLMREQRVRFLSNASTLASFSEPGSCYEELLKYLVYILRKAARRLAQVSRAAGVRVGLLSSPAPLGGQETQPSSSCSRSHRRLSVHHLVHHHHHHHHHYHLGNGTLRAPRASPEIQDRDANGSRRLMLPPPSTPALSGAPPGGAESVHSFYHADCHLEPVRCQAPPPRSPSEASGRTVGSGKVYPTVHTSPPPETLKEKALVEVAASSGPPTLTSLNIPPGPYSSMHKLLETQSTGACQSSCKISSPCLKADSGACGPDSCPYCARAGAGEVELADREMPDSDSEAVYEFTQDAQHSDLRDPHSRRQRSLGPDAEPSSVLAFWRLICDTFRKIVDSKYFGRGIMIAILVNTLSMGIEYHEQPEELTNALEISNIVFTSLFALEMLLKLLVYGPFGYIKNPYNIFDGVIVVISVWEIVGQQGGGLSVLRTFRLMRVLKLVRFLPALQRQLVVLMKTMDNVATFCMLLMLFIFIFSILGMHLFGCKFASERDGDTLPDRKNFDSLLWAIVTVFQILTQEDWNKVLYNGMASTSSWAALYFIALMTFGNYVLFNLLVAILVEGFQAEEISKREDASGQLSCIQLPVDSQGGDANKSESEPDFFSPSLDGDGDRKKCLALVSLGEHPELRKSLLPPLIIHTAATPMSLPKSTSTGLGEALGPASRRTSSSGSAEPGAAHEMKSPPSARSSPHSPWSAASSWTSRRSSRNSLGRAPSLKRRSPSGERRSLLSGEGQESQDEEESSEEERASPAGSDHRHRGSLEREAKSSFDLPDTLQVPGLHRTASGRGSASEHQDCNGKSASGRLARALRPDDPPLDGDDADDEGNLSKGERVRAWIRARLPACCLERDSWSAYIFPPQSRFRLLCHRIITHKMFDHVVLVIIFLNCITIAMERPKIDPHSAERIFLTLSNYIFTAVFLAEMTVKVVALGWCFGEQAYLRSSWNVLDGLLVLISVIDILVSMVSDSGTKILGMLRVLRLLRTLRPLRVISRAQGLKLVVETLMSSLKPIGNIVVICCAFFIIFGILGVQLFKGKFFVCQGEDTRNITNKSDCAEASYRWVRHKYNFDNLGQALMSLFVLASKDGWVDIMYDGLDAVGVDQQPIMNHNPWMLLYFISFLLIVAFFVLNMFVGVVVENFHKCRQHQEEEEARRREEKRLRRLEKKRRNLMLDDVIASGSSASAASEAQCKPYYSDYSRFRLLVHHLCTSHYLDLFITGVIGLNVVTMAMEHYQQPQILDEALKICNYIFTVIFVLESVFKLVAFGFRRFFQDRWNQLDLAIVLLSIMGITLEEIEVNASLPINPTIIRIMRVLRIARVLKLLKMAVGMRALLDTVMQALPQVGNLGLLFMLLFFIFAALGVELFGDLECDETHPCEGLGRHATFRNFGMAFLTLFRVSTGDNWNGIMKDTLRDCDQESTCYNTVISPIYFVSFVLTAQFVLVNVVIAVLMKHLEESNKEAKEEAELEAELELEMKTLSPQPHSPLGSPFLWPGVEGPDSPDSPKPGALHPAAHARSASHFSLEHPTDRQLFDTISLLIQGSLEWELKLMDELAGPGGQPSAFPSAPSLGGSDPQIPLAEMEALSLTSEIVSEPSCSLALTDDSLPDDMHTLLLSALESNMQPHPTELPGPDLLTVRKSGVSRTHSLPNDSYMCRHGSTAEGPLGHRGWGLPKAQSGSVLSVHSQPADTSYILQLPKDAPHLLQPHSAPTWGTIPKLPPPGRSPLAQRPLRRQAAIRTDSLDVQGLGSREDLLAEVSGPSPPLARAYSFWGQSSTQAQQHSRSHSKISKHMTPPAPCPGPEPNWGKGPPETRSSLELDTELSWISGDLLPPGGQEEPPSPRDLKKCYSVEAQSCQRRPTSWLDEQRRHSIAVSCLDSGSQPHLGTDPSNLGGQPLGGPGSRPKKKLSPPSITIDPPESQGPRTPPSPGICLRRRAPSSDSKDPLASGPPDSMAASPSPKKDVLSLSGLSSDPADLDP
The assay is described as above. The note with it: mainly non-inactivated protocol. Type of assay: cell-based. As to the method:
as §1, §2, §3, §4, §5

Assay [3] has as its target T3, human α1H T-type channels (Homo sapiens, UniProt O95180).
T3 construct: expressed in transfected cells; host or cells: HEK 293
The description is as above. Format: cell-based. The note with it: mainly non-inactivated protocol. The method, then: as §1, §2, §3, §4, §5

The conditions of assay [4]: spinal nerve ligation model of neuropathic pain in rats; cited from earlier work.
For assay [5], the system named is T-type over L-type channels. The conditions noted are these: cited from earlier work.

T3 sequence (O95180 whole entry): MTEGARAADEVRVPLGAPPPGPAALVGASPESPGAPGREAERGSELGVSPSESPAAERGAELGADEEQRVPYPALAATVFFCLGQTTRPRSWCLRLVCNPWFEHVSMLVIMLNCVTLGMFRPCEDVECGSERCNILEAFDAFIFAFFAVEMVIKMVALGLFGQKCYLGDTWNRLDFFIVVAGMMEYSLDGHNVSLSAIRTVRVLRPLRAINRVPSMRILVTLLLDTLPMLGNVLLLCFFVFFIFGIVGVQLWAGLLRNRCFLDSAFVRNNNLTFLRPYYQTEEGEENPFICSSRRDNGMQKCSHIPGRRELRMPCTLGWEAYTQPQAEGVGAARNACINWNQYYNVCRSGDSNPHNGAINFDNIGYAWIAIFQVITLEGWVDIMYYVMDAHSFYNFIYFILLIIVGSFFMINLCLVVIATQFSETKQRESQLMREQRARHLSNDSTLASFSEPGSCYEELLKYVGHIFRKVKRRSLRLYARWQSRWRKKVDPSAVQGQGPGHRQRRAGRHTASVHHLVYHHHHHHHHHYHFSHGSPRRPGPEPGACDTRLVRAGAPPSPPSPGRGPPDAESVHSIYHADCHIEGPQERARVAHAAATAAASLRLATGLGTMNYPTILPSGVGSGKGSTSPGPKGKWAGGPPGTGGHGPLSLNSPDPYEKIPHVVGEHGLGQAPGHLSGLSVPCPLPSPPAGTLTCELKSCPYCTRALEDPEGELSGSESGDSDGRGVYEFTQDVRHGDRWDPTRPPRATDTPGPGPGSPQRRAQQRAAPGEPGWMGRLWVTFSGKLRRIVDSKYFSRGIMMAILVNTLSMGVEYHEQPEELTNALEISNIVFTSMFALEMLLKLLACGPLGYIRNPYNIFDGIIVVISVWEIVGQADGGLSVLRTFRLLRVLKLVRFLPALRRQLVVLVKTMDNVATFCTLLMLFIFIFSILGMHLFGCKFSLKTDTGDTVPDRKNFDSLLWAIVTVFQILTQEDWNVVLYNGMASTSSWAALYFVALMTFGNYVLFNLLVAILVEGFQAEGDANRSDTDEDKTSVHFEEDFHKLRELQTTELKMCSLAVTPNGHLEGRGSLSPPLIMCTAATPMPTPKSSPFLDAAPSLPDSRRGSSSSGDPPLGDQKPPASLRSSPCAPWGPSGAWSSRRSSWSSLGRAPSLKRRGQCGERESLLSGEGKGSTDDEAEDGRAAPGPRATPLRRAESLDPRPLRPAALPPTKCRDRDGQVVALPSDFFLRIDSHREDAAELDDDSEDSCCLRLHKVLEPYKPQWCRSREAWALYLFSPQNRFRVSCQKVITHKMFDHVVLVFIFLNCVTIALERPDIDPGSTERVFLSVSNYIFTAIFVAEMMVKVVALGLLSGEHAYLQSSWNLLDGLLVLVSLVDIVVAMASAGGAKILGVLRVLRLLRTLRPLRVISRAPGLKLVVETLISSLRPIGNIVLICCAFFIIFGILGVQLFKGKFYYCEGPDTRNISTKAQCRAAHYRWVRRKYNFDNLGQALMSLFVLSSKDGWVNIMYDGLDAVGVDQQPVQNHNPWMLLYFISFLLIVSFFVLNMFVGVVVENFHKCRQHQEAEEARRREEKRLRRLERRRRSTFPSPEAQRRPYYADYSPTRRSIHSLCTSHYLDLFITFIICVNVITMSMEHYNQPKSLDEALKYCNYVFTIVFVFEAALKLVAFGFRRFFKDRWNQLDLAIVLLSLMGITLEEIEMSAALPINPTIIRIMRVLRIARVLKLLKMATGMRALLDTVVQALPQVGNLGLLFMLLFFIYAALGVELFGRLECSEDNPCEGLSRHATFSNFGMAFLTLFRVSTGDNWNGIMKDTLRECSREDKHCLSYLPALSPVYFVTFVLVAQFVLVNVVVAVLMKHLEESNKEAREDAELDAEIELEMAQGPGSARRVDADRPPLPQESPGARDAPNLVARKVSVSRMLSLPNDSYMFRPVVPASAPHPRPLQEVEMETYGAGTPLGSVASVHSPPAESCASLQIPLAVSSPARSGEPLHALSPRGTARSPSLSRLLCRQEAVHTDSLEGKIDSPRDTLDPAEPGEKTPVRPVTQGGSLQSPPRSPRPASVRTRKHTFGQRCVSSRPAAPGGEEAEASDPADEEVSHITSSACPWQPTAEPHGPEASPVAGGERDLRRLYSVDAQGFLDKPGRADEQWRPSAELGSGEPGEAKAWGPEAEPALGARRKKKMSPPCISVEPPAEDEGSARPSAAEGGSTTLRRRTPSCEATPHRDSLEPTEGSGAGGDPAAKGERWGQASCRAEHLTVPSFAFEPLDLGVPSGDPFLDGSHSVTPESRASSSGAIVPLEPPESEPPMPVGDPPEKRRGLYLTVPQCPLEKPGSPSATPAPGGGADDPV

On to `O=C(/C=C/c1ccc(F)c(Br)c1)NC1(C(=O)NCCc2c[nH]c3ccccc23)CCNCC1` [Compound 2, (E)-N-(2-(1H-indol-3-yl)ethyl)-4-(3-(3-bromo-4-fluorophenyl)acrylamido)piperidine-4-carboxamide], for which the Kd (in general, the free concentration of one partner at which half of the binding sites on the other are occupied at equilibrium, for simple one-to-one binding) in assay [1] (measured at 1 μM drug) stood at 30 nM; in assay [2] (measured at 1 μM drug), 30 nM; in assay [3] (measured at 1 μM drug), 410 nM.

With `O=C(/C=C/c1ccc(F)c(Br)c1)NC1(C(=O)NCCc2c[nH]c3ccc(F)cc23)CCN(C(=O)C(F)(F)F)CC1` [Compound 27, (E)-4-(3-(3-bromo-4-fluorophenyl)acrylamido)-N-(2-(5-fluoro-1H-indol-3-yl)ethyl)-1-(2,2,2-trifluoroacetyl) piperidine-4-carboxamide], the Kd in assay [1] (measured at 1 μM drug) turned out to be 210 nM; in assay [2] (measured at 1 μM drug) it was 150 nM; in assay [3] (measured at 1 μM drug) it was 840 nM.

`O=C(/C=C/c1ccc(F)c(Br)c1)NC1(C(=O)NCCc2c[nH]c3ccc(F)cc23)CCNCC1` [Compound 1]: the Kd was 180 nM in assay [1] (measured at 1 μM drug), 220 nM in assay [2] (measured at 1 μM drug) and 470 nM in assay [3] (measured at 1 μM drug).

Consider `CCC1(C)CC(=O)NC1=O` (stereo not shown) [ethosuximide], for which, in assay [4], the anti-hyperalgesic activity entry is “anti-hyperalgesic activity”.

For `O=C(/C=C/c1ccc(F)cc1)NC1(C(=O)Nc2cc(C(F)(F)F)cc(C(F)(F)F)c2)CCNCC1` [Compound 32, (E)-N-(3,5-bis(trifluoromethyl)phenyl)-4-(3-(4-fluorophenyl)acrylamido)piperidine-4-carboxamide], the Kd in assay [1] (measured at 1 μM drug) was 50 nM; in assay [2] (measured at 1 μM drug) it was 50 nM; in assay [3] (measured at 1 μM drug), 420 nM.

In the case of `COC(=O)N1CCC(NC(=O)/C=C/c2ccc(F)c(Br)c2)(C(=O)NCCc2c[nH]c3ccc(F)cc23)CC1` [Compound 23, (E)-methyl 4-(3-(3-bromo-4-fluorophenyl)acrylamido)-4-(2-(5-fluoro-1H-indol-3-yl)ethylcarbamoyl)piperidine-1-carboxylate], the Kd in assay [1] (measured at 1 μM drug) is 870 nM; in assay [2] (measured at 1 μM drug), 790 nM.

As for `O=C(/C=C/c1ccc(F)c(Br)c1)NC1(C(=O)NCCc2c[nH]c3ccc(F)cc23)CCCCC1` [Compound 12, (E)-1-(3-(3-bromo-4-fluorophenyl)acrylamido)-N-(2-(5-fluoro-1H-indol-3-yl)ethyl)cyclohexanecarboxamide], the figures for the Kd in assay [1] (measured at 1 μM drug), in assay [2] (measured at 1 μM drug) and in assay [3] (measured at 1 μM drug) were 280 nM, 120 nM and 1800 nM, respectively.

In the case of `O=C(/C=C/c1ccc(F)c(Br)c1)N[C@H](C(=O)NCCc1c[nH]c2ccc(F)cc12)c1ccccc1` [Compound 17, (S,E)-3-(3-bromo-4-fluorophenyl)-N-(2-(2-(5-fluoro-1H-indol-3-yl)ethylamino)-2-oxo-1-phenylethyl)acrylamide], the Kd in assay [1] (measured at 1 μM drug) was 170 nM; in assay [2] (measured at 1 μM drug), 100 nM; in assay [3] (measured at 1 μM drug), 940 nM.

For the molecule `CN1CCC(NC(=O)/C=C/c2ccc(F)c(Br)c2)(C(=O)NCCc2c[nH]c3ccc(F)cc23)CC1` [Compound 22], the equilibrium dissociation constant (Kd) worked out at 330 nM in assay [1] (measured at 1 μM drug), 100 nM in assay [2] (measured at 1 μM drug) and 490 nM in assay [3] (measured at 1 μM drug).

Consider `CN1CCC(NC(=O)/C=C/c2ccc(F)cc2)(C(=O)Nc2cc(C(F)(F)F)cc(C(F)(F)F)c2)CC1` [Compound 42, (E)-N-(3,5-bis(trifluoromethyl)phenyl)-4-(3-(4-fluorophenyl)acrylamido)-1-methylpiperidine-4-carboxamide], for which the Kd amounted to 220 nM in assay [2] (measured at 1 μM drug) and 41900 nM in assay [3] (measured at 1 μM drug).

`CC(C)(NC(=O)/C=C/c1ccc(F)c(Br)c1)C(=O)NCCc1c[nH]c2ccc(F)cc12` [Compound 15, (E)-3-(3-bromo-4-fluorophenyl)-N-(1-(2-(5-fluoro-1H-indol-3-yl)ethylamino)-2-methyl-1-oxopropan-2-yl)acrylamide]: the Kd in assay [1] (measured at 1 μM drug) stood at 480 nM; in assay [2] (measured at 1 μM drug) it was 360 nM.

For the molecule `COCC(=O)O[C@]1(CCN(C)CCCc2nc3ccccc3[nH]2)CCc2cc(F)ccc2[C@@H]1C(C)C` [Mibefradil], the anti-hyperalgesic activity entry in assay [4] was “anti-hyperalgesic activity”. Also, the “selective for T-type over L-type channels” value in assay [5] is 10-30 fold.

Take `O=C(/C=C/c1ccc(F)c(F)c1)NC1(C(=O)NCCc2c[nH]c3ccc(F)cc23)CCNCC1` [Compound 7, (E)-4-(3-(3,4-difluorophenyl)acrylamido)-N-(2-(5-fluoro-1H-indol-3-yl)ethyl)piperidine-4-carboxamide]: the Kd in assay [1] (measured at 1 μM drug) was found to be 110 nM; in assay [2] (measured at 1 μM drug) it was 130 nM; in assay [3] (measured at 1 μM drug), 137000 nM.

As to `O=C(/C=C/c1ccc(F)c(F)c1)NC1(C(=O)Nc2ccccc2Oc2ccccc2)CCNCC1` [Compound 50, (E)-4-(3-(3,4-difluorophenyl)acrylamido)-N-(2-phenoxyphenyl)piperidine-4-carboxamide], the Kd in assay [2] (measured at 1 μM drug) came to 80 nM; in assay [3] (measured at 1 μM drug), 2970 nM.

Take `O=C(/C=C/c1ccc(F)c(Br)c1)NC1(C(=O)NCCc2c[nH]c3ccc(F)cc23)CC1` [Compound 14, (E)-1-(3-(3-bromo-4-fluorophenyl)acrylamido)-N-(2-(5-fluoro-1H-indol-3-yl)ethyl)cyclopropanecarboxamide]: the Kd in assay [1] (measured at 1 μM drug) was 460 nM; in assay [2] (measured at 1 μM drug), 290 nM; in assay [3] (measured at 1 μM drug), 12000 nM.

On to `O=C(/C=C/c1ccc(F)cc1)NC1(C(=O)Nc2cc(C(F)(F)F)cc(C(F)(F)F)c2)CCN(C2CCOCC2)CC1` [Compound 54, (E)-N-(3,5-bis(trifluoromethyl)phenyl)-4-(3-(4-fluorophenyl)acrylamido)-1-(tetrahydro-2H-pyran-4-yl)piperidine-4-carboxamide], for which the Kd in assay [2] (measured at 1 μM drug) was 210 nM; in assay [3] (measured at 1 μM drug) it was 6320 nM.

Take `O=C(/C=C/c1ccc(F)c(Br)c1)NC1(C(=O)NCCc2c[nH]c3ccc(F)cc23)CCCC1` [Compound 13, (E)-1-(3-(3-bromo-4-fluorophenyl)acrylamido)-N-(2-(5-fluoro-1H-indol-3-yl)ethyl)cyclopentanecarboxamide]: the Kd in assay [1] (measured at 1 μM drug) was found to be 390 nM; in assay [2] (measured at 1 μM drug), 140 nM; in assay [3] (measured at 1 μM drug) it was 1790 nM.

Take `O=C(/C=C/c1ccc(F)c(Br)c1)N[C@@H](C(=O)NCCc1c[nH]c2ccc(F)cc12)c1ccccc1` [Compound 18, (R,E)-3-(3-bromo-4-fluorophenyl)-N-(2-(2-(5-fluoro-1H-indol-3-yl)ethylamino)-2-oxo-1-phenylethyl)acrylamide]: the values for the Kd in assay [1] (measured at 200 nM drug), in assay [2] (measured at 200 nM drug) and in assay [3] (measured at 200 nM drug) were 380 nM, 70 nM and 690 nM, respectively.

`NCC(=O)N1CCC(NC(=O)/C=C/c2ccc(F)c(Br)c2)(C(=O)NCCc2c[nH]c3ccc(F)cc23)CC1` [Compound 24, (E)-1-(2-aminoacetyl)-4-(3-(3-bromo-4-fluorophenyl)acrylamido)-N-(2-(5-fluoro-1H-indol-3-yl)ethyl)piperidine-4-carboxamide]: the results for the equilibrium dissociation constant (Kd) in assay [1] (measured at 1 μM drug), in assay [2] (measured at 1 μM drug) and in assay [3] (measured at 1 μM drug) were 440 nM, 180 nM and 1450 nM, respectively.
